What all share (assay type): cell-based
Test [1] addresses T1, short form of the GPR120 receptor (Homo sapiens, UniProt Q5NUL3).
T1 construct: host or cells: PathHunter CHO-K1 GPR120S β-Arrestin Cell Line
The test is described as follows: Human GPR120 DiscoveRx PathHunter Beta-Arrestin assay, Procedure β-arrestin B. From the text:
Human GPR120 DiscoveRx PathHunter® Beta-Arrestin Assay Assay Principle:
The binding of an agonist (medium/long chain fatty acids or small molecule agonists) to the G-protein-coupled receptor GPR120 activates phospholipase C, leading to release of intracellular Ca^+2 through the generation of inositol 1,4,5-trisphosphate (InsP3 or IP3). GPR120 activation can also trigger intracellular signaling via recruitment of Beta-Arrestin. In the present method, agonist-induced activation of the human GPR120 receptor is monitored through the use of PathHunter® CHO-K1 GPR120 Beta-Arrestin Cell Line engineered by DiscoveRx, as detailed below. The cell lines are designed to co-express both the ProLink/Enzyme Donor (PK)-tagged GPCR and the Enzyme […] (EA)-tagged Beta-Arrestin fusion proteins. Upon GPR120 receptor stimulation/activation, the EA-tagged Beta-Arrestin portion is translocated to the tagged receptor, where the two enzyme fragments are brought within close proximity. Under these conditions, these fragments can interact and form an active Beta-gal enzyme complex through Enzyme Fragment Complementation (EFC). This active Beta-gal complex can enzymatically hydrolyse the substrate to produce a detectable light signal; therefore, activation as a function of agonist concentration can be expressed as an EC50 value to determine relative compound activities. This in vitro assay therefore serves to assess compound agonist activity of the GPR120.
In Procedure β-arrestin B the cells used were PathHunter® CHO-K1 GPR120S β-Arrestin Cell Line, expressing the short form of the GPR120 receptor (Accession #[…]), with 5000 cells/well.
The selected CHO-K1 GPR120 β-Arrestin cells were cultured in Ham's F12 media supplemented with 10% fetal bovine serum (FBS), 1% Glutamine, 1×p/s, 800 μg/mL G418 and 300 μg/mL Hygromycin B (for selection). Cell stocks were maintained and grown in a sub-confluent state using standard cell culture procedures. The day before the experiment, the cells were harvested with non-enzymatic cell dissociation buffer and re-suspended in complete growth media at the desired concentration. A Corning 384-plate was then seeded with the proper number of cells in a volume of 25 μL, per well. The seeded plates were incubated overnight at 37° C.
On the day of the experiment, the Assay Buffer containing (a) HBSS with Ca^++ and Mg^++, (b) 20 mM HEPES, and (c) 0.1% BSA stabilizer (pH 7.4) was prepared. The growth medium was gently removed from the cell plates and 20 μL of Assay Buffer added to each well. The plate was then incubated at 37° C. for 60 min. Test compounds were serially diluted in Assay Buffer to desired concentrations (more particularly to one or more of the following μM concentrations: 25, 12.5, 6.25, 3.12, 1.56, 0.78, 0.39, 0.19, 0.10, 0.05, 0.02, 0.01). Five μL of compound dilution was then added to each well and the plate incubated at 37° C. for 90 min. The detection reagents were prepared according to the manufacture's instruction. Twelve μL of the detection reagents were added to each well and the plate incubated at room temperature for 60 min.
The plates were read on an EnVision instrument, using Protocol name: Luminescence, Plate type: 384 Costar, Measurement height: 3 mm, Measurement time: 1 s, Aperture: 384 Plate aperture. The % Activity relative to the positive control was calculated using the following equation:
The % Activity values were plotted versus the concentration of test compound and fitted to a sigmoidal dose-response curve with a Hill slope=1 (fixed value) using nonlinear regression with GraphPad Prism 5.0 to calculate the EC50 values. The Fitting Equation was: Y=Bottom+(Top-Bottom)/(1+10^((Log EC50−X)*HillSlope)), where X is the log of the concentration and Y is the response.

For test [2], the target named is T2, Human GPR120 short form (Homo sapiens, UniProt Q5NUL3).
T2 construct: expressed in transfected cells
T2 sequence (Q5NUL3 1-361): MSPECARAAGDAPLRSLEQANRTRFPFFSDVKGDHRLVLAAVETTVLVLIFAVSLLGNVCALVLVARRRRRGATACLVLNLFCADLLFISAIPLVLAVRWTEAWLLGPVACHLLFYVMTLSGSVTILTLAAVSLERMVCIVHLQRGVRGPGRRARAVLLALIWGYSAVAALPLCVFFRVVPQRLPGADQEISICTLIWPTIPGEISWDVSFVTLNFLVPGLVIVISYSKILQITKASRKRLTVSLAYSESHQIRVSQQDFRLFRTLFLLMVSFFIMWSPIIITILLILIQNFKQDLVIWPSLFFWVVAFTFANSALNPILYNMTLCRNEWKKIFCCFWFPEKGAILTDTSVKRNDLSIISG
The test is described as follows: Human GPR120 calcium flux assay, Procedure Calcium A (2500 cells/well). Summed up: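 HEK293 cells stably expressing human GPR120 short isoform (NM_001195755.1), 2500 cells/well, serum-starved 1 h at 37 °C and loaded with Fluo-4 NW plus probenecid. FLIPR fluorescence read for 300 s after compound addition; response = Fmax−Fmin. EC50 from four-parameter concentration–response fit.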
On the technique in general: Calcium assays in cells follow changes in intracellular calcium, usually with a dye or a luminescent sensor.

The target in test [3] is T2, Human GPR120 short form. The experiment in a line: Human GPR120 calcium flux assay, Procedure Calcium B (4200 cells/well). Summed up:
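HEK293 cells stably expressing human GPR120 (NM_001195755.1), 4200 cells/well, starved 1 h and loaded with Fluo-4 NW plus probenecid. Ligand-evoked calcium flux read on FLIPR for 300 s after a 10 s baseline. RFU = Fmax−Fmin; EC50 from four-parameter concentration-response fit.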

We go through 3 molecules from US11230526B1, “Cylcoalkenyl derivatives useful as agonists of the GPR120 and/or GPR40 receptors” (Janssen Pharmaceutica NV, priority 2018, dated 2022).

In general, EC50 refers to the concentration giving half of the maximal effect.

T1 sequence (P32121 whole entry partner, one chain of several): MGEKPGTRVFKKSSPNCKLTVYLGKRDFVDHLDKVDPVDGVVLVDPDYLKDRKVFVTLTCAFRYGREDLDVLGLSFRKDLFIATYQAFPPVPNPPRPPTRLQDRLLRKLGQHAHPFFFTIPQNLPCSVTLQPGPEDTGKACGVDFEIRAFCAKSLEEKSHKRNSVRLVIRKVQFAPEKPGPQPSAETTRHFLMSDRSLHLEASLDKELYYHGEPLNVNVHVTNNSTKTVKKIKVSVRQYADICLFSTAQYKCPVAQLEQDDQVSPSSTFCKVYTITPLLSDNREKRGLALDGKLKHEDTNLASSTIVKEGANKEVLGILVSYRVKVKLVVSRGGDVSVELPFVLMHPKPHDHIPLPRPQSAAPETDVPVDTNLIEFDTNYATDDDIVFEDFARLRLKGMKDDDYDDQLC

With `Cc1c(CCC(=O)O)ccc(OCC2=C(c3ccc(Br)cc3)CCCC2)c1C` [Compound 481, 3-[4-[[2-(4-bromophenyl)cyclohexen-1-yl]methoxy]-2,3-dimethyl-phenyl]Propanoic Acid], the values for the EC50 (in test [1]; at Human GPR120 short form [2]; at Human GPR120 short form [3]) were 475 nM, 250 nM and 134 nM, respectively.

Turning to `Cc1c(CCC(=O)O)ccc(OCC2=C(c3cccs3)CCCC2)c1C` [Compound 482, 3-[2,3-dimethyl-4-[[2-(2-thienyl)cyclohexen-1-yl]methoxy]phenyl]Propanoic Acid], the EC50 in test [1] was 126 nM; on Human GPR120 short form [2], 406 nM; on Human GPR120 short form [3] it was 91 nM.

For the molecule `CSc1ccc(C2=C(COc3ccc(CCC(=O)O)c(C)c3C)CCCC2)cc1` [Compound 492, 3-[2,3-dimethyl-4-[[2-(4-methylsulfanylphenyl)cyclohexen-1-yl]methoxy]phenyl]Propanoic Acid], the EC50 in test [1] amounted to 717 nM; at Human GPR120 short form [2] it was 576 nM; at Human GPR120 short form [3], 185 nM.
